These results are taken from patent EP4620466A1, “TRIMETHOXYSTYRYL DERIVATIVES FOR USE IN THE TREATMENT OF PACLITAXEL-RESISTANT CANCER” (Instituto de Investigación Biomédica de Salamanca De la …, priority 2024, dated 2025).

For experiment [1], the system named is HeLa cells. Briefly: Cell proliferation assay with and without verapamil (MDR transporter check). It counts as cell-based. To be noted: for potency increase with addition of verapamil: with verapamil versus without.
Experiment [2] has as its system HeLa cells. Briefly: Cell proliferation assay (XTT), cytostatic activity. It counts as cell-based. Conditions: 72-h treatment, XTT cell proliferation kit. As for the experimental part:
[…] cells were seeded in 96-well plates and incubated in the presence or the absence of the indicated compounds at concentrations ranging from 10^-5 to 10^-12 M. The cytostatic activity was measured after 72-h treatments using the XTT (sodium 3'-[1-(phenylaminocarbonyl)-3,4-tetrazolium]-bis(4- methoxy-6-nitro)-benzenesulfonic acid hydrate) cell proliferation kit (Roche Molecular Biochemicals; Mannheim, Germany) following the manufacturer's specifications. Each condition was seeded in triplicate, and experiments were repeated three times to calculate IC values by non-linear regression fitting the data.
A general note: Tetrazolium assays rely on reduction of a dye to a coloured formazan, in cell work by metabolically active cells.

Where [3] appears, read: Homo sapiens, without verapamil (control), compounds for 72 h, read-out: potency in the absence of verapamil.
The mark [4] stands for this setting: read-out: potency in the presence of 10 µM verapamil, incubated with 10 µM verapamil for 2 h, then compounds for 72 h.

Bounds are passed on as bounds.

Regarding `COc1cc(/C=C\c2ccc3c(c2)c(C=O)cn3C)cc(OC)c1OC` [Compound 29, (Z)-1-Methyl-5-(3,4,5-trimethoxystyryl)-1H-indole-3-carbaldehyde], the “potency increase with addition of verapamil” value (from here on “potency increase with addition”) in the experiment with HeLa cells [1] is recorded as “more than 10 fold”.

For `COc1cc(/C=C\c2ccc3c(c2)c(/C=N/O)cn3C)cc(OC)c1OC` [Compound 31, (Z + E)-1-methyl-5-(3,4,5-trimethoxystyryl)-1H-indole-3-carbaldehyde oxime], in the experiment on HeLa cells [1], the “potency increase with addition” value is “more than 10 fold”.

Regarding `COc1cc(/C=C\c2ccc3c(c2)c(C#N)cn3C)cc(OC)c1OC` [Compound 33, (Z)-1-Methyl-5-(3,4,5-trimethoxystyryl)-1H-indole-3-carbonitrile], the “potency increase with addition” value in the experiment with HeLa cells [1] is reported as “more than 10 fold”.

In the case of `COc1cc(NS(=O)(=O)c2ccc3c(ccn3C)c2)cc(OC)c1OC` [Compound 44, 1-Methyl-N-(3,4,5-trimethoxyphenyl)-1H-indole-5-sulfonamide], the figures for the IC50 in the experiment on HeLa cells [2] (Homo sapiens), in the experiment with HeLa cells [1] (setting [3]) and in the experiment with HeLa cells [1] (setting [4]) were 10.8 nM, 10.8 nM and 8.4 nM, respectively.

In the case of `COc1cc(NS(=O)(=O)c2ccc3c(ccn3C)c2)cc(OC)c1` [Compound 45, N-(3,5-dimethoxyphenyl)-1-methyl-1H-indole-5-sulfonamide], the results for the IC50 in the experiment with HeLa cells [2] (Homo sapiens), with HeLa cells [1] (setting [3]) and in the experiment with HeLa cells [1] (setting [4]) were 1400 nM, > 1000 nM and > 1000 nM, respectively.

`COc1cc(N(C)S(=O)(=O)c2ccc3c(ccn3C)c2)cc(OC)c1OC` [Compound 46, N,1-dimethyl-N-(3,4,5-trimethoxyphenyl)-1H-indole-5-sulfonamide]: the IC50 is 2.4 nM in the experiment with HeLa cells [2] (Homo sapiens), 2.4 nM in the experiment on HeLa cells [1] (setting [3]) and 1.9 nM in the experiment on HeLa cells [1] (setting [4]).

Take `COc1cc(OC)cc(N(C)S(=O)(=O)c2ccc3c(ccn3C)c2)c1` [Compound 47, N-(3,5-dimethoxyphenyl)-N,1-dimethyl-1H-indole-5-sulfonamide]: the IC50 is 20.1 nM in the experiment with HeLa cells [2] (Homo sapiens), 551 nM in the experiment on HeLa cells [1] (setting [3]) and 642 nM in the experiment on HeLa cells [1] (setting [4]).

In the case of `C=C(c1cc(Cl)nc(SC)c1)c1ccc2c(c1)c(C(N)=O)cn2C` [Compound 70, 5-(1-(2-chloro-6-(methylsulfanyl)pyridin-4-yl)vinyl)-1-methyl-1H indole-3-carboxamide], the IC50 in the experiment on HeLa cells [2] (Homo sapiens) was > 1000 nM.

The compound `C=C(c1cc(Cl)nc(SC)c1)c1ccc2c(c1)c(C#N)cn2C` [Compound 71] gave an IC50 in the experiment with HeLa cells [2] of 100 nM.

As to `C=C(c1cc(Cl)nc(SC)c1)c1ccc2c(c1)c(C(=O)O)cn2C` [Compound 72, 5-(1-(2-Chloro-6-(methylsulfanyl)pyridin-4-yl)vinyl)-1-methyl-1H-indole-3-carboxylic acid], the IC50 with HeLa cells [2] (Homo sapiens) stood at 80 nM.

In the case of `CSc1cc(C(=O)c2ccc3c(ccn3C)c2)cc(SC)n1` [Compound 73, (2,6-Bis(methylsulfanyl)pyridin-4-yl) (1-methyl-1H-indol-5-yl)methanone], the IC50 with HeLa cells [2] (Homo sapiens) came out at 200 nM.

`C=C(c1cc(SC)nc(SC)c1)c1ccc2c(ccn2C)c1` [Compound 74, 5-(1-(2,6-Bis(methylsulfanyl)pyridin-4-yl)vinyl)-1-methyl-1H-indole]: the IC50 with HeLa cells [2] (Homo sapiens) turned out to be 500 nM.

In the case of `CSc1cc(C(=O)c2ccc3c(c2)c(C=O)cn3C)cc(SC)n1` [Compound 76, 5-(2,6-bis(methylsulfanyl)isonicotinoyl)-1-methyl-1H-indole-3-carbaldehyde], in the experiment on HeLa cells [2] (Homo sapiens), the IC50 is > 1000 nM.

In turn, `C=C(c1cc(SC)nc(SC)c1)c1ccc2c(c1)c(C=O)cn2C` [Compound 77, 5-(1-(2,6-bis(methylsulfanyl)pyridin-4-yl)vinyl)-1-methyl-1H-indole-3-carbaldehyde] returned an IC50 in the experiment with HeLa cells [2] (Homo sapiens) of 100 nM.

The compound `C=C(c1cc(SC)nc(SC)c1)c1ccc2c(c1)c(C(N)=O)cn2C` [Compound 78, 5-(1-(2,6-bis(methylsulfanyl)pyridin-4-yl)vinyl)-1-methyl-1H-indole-3-carboxamide] registered an IC50 in the experiment with HeLa cells [2] (Homo sapiens) of 600 nM.

In the experiment with HeLa cells [2] (Homo sapiens), `C=C(c1cc(SC)nc(SC)c1)c1ccc2c(c1)c(C#N)cn2C` [Compound 79, 5-(1-(2,6-bis(methylsulfanyl)pyridin-4-yl)vinyl)-1-methyl-1H-indole-3-carbonitrile] returned an IC50 of 600 nM.

With `C=C(c1cc(SC)nc(SC)c1)c1ccc2c(c1)c(C(=O)O)cn2C` [Compound 80, 5-(1-(2,6-Bis(methylsulfanyl)pyridin-4-yl)vinyl)-1-methyl-1H-indole-3-carboxylic acid], in the experiment on HeLa cells [2] (Homo sapiens), the IC50 is > 1000 nM.

`COc1cc(C(=O)c2ccc3c(ccn3C)c2)cc(SC)n1` [Compound 81, (2-methoxy-6-(methylthio)pyridin-4-yl)(1-methyl-1H-indol-5-yl)methanone] yielded an IC50 in the experiment with HeLa cells [2] (Homo sapiens) of 200 nM.

The compound `C=C(c1cc(OC)nc(SC)c1)c1ccc2c(ccn2C)c1` [Compound 82, 5-(1-(2-methoxy-6-(methylsulfanyl)pyridin-4-yl)vinyl)-1-methyl-1H-indole] showed an IC50 with HeLa cells [2] (Homo sapiens) of 600 nM.

The compound `COc1cc(C(=NO)c2ccc3c(ccn3C)c2)cc(SC)n1` [Compound 83, (2-methoxy-6-(methylsulfanyl)pyridin-4-yl)(1-methyl-1H-indol-5-yl)methanone oxime] returned an IC50 with HeLa cells [2] (Homo sapiens) of 200 nM.

With `COc1cc(C(=O)c2ccc3c(c2)c(C=O)cn3C)cc(SC)n1` [Compound 84, 5-(2-methoxy-6-(methylsulfanyl)isonicotinoyl)-1-methyl-1H-indole-3-carbaldehyde], in the experiment on HeLa cells [2] (Homo sapiens), the IC50 is > 1000 nM.

The compound `C=C(c1cc(OC)nc(SC)c1)c1ccc2c(c1)c(C=O)cn2C` [Compound 85, 5-(1-(2-methoxy-6-(methylsulfanyl)pyridin-4-yl)vinyl)-1-methyl-1H-indole-3-carbaldehyde] yielded an IC50 in the experiment on HeLa cells [2] (Homo sapiens) of 400 nM.

Take `C=C(c1cc(OC)nc(SC)c1)c1ccc2c(c1)c(C(=O)O)cn2C` [Compound 86, 5-(1-(2-methoxy-6-(methylsulfanyl)pyridin-4-yl)vinyl)-1-methyl-1H-indole-3-carboxylic acid]: the IC50 in the experiment on HeLa cells [2] (Homo sapiens) is > 1000 nM.

The compound `COc1cc(C(=O)c2ccc3c(c2)c(C#N)cn3C)cc(SC)n1` [Compound 87, 5-(2-methoxy-6-(methylsulfanyl)isonicotinoyl)-1-methyl-1H-indole-3-carbonitrile] returned an IC50 in the experiment on HeLa cells [2] (Homo sapiens) of 800 nM.

With `COc1cc(C(=NO)c2ccc3c(c2)c(C#N)cn3C)cc(SC)n1` [Compound 88], the IC50 in the experiment with HeLa cells [2] was > 1000 nM.

On to `CSc1cc(C(=O)c2ccc3c(ccn3C)c2)cc(N(C)C)n1` [Compound 89, (2-(dimethylamino)-6-(methylthio)pyridin-4-yl)(1-methyl-1H-indol-5-yl)methanone], for which the IC50 with HeLa cells [2] (Homo sapiens) amounted to 500 nM.

`C=C(c1cc(SC)nc(N(C)C)c1)c1ccc2c(ccn2C)c1` [Compound 90, N,N-dimethyl-4-(1-(1-methyl-1H-indol-5-yl)vinyl)-6-(methylthio)pyridin-2-amine] gave an IC50 with HeLa cells [2] (Homo sapiens) of 200 nM.

Turning to `CSc1cc(C(=NO)c2ccc3c(ccn3C)c2)cc(N(C)C)n1` [Compound 91, (2-(Dimethylamino)-6-(methylthio)pyridin-4-yl)(1-methyl-1H-indol-5-yl)methanone oxime], in the experiment with HeLa cells [2] (Homo sapiens), the IC50 amounted to 600 nM.

`CSc1cc(C(=O)c2ccc3c(c2)c(C=O)cn3C)cc(N(C)C)n1` [Compound 92, 5-(2-(dimethylamino)-6-(methylthio)isonicotinoyl)-1-methyl-1H-indole-3-carbaldehyde]: the IC50 in the experiment with HeLa cells [2] (Homo sapiens) is > 1000 nM.

`C=C(c1cc(SC)nc(N(C)C)c1)c1ccc2c(c1)c(C=O)cn2C` [Compound 93, 5-(1-(2-(dimethylamino)-6-(methylthio)pyridin-4-yl)vinyl)-1-methyl-1H-indole-3-carbaldehyde]: in the experiment with HeLa cells [2] (Homo sapiens), the IC50 amounted to 300 nM.

Take `C=C(c1cc(SC)nc(N(C)C)c1)c1ccc2c(c1)c(C(=O)O)cn2C` [Compound 94, 5-(1-(2-(dimethylamino)-6-(methylthio)pyridin-4-yl)vinyl)-1-methyl-1H-indole-3-carboxylic acid]: the IC50 in the experiment on HeLa cells [2] (Homo sapiens) is 700 nM.

In turn, `CSc1cc(C(=NO)c2ccc3c(c2)c(C#N)cn3C)cc(N(C)C)n1` [Compound 95, 5-((2-(dimethylamino)-6-(methylthio)pyridin-4-yl)(hydroxyimino)methyl)-1-methyl-1H-indole-3-carbonitrile] returned an IC50 in the experiment with HeLa cells [2] (Homo sapiens) of 300 nM.

Compound `C=C(c1cc(SC)nc(N(C)C)c1)c1ccc2c(c1)c(C#N)cn2C` [Compound 96, 5-(1-(2-(dimethylamino)-6-(methylthio)pyridin-4-yl)vinyl)-1-methyl-1H-indole-3-carbonitrile] gave an IC50 in the experiment on HeLa cells [2] (Homo sapiens) of 600 nM.

The compound `C=C(c1cc(SC)nc(N(C)C)c1)c1ccc2c(c1)c(C(N)=O)cn2C` [Compound 97, 5-(1-(2-(dimethylamino)-6-(methylthio)pyridin-4-yl)vinyl)-1-methyl-1H-indole-3-carboxamide] yielded an IC50 in the experiment on HeLa cells [2] (Homo sapiens) of 600 nM.

In the case of `CN(C)c1cc(C(=O)c2ccc3c(ccn3C)c2)cc(Cl)n1` [Compound 98, (2-chloro-6-(dimethylamino)pyridin-4-yl)(1-methyl-1H-indol-5-yl)methanone], the IC50 in the experiment on HeLa cells [2] (Homo sapiens) is > 1000 nM.

In turn, `C=C(c1cc(Cl)nc(N(C)C)c1)c1ccc2c(ccn2C)c1` [Compound 99, 6-chloro-N,N-dimethyl-4-(1-(1-methyl-1H-indol-5-yl)vinyl)pyridin-2-amine] yielded an IC50 in the experiment with HeLa cells [2] (Homo sapiens) of 100 nM.

Compound `C=C(c1cc(Cl)nc(N(C)C)c1)c1ccc2c(c1)c(C#N)cn2C` [Compound 100, 5-(1-(2-chloro-6-(dimethylamino)pyridin-4-yl)vinyl)-1-methyl-1H-indole-3-carbonitrile] had an IC50 in the experiment with HeLa cells [2] (Homo sapiens) of 600 nM.

In the case of `C=C(c1cc(Cl)nc(N(C)C)c1)c1ccc2c(c1)c(C=O)cn2C` [Compound 101, 5-(1-(2-chloro-6-(dimethylamino)pyridin-4-yl)vinyl)-1-methyl-1H-indole-3-carbaldehyde], the IC50 with HeLa cells [2] (Homo sapiens) is > 1000 nM.

`COc1ccc(CCN(C)CCCC(C#N)(c2ccc(OC)c(OC)c2)C(C)C)cc1OC` (centres unmarked) [Verapamil, verapamil, reference compound]: the “effect on cell proliferation” value in the experiment on HeLa cells [1] (verapamil alone at the working concentrations (1 and 10 µM)) is reported as “no effect”.
